Measurements published in publication PMC9916969 (International Journal of Molecular Sciences, 2023).
Several values for one entry are separate records, joined by “and”; a condition that tells them apart may be missing. Equal values may be shown once.

Key:
in vitro = assay type: cell-based; conditions: mouse
Experimental: […]. Accordingly, in the present work, we paid special attention to the study of the cytotoxic activity of compounds on primary cultures of mouse hepatocytes using standard MTT methodology.
The cytotoxicity of the compounds was evaluated using a primary culture of mouse hepatocytes isolated at the Center for Biotechnology and Bioengineering, Ural Federal University, Ekaterinburg, Russia, according to the standard method. Cells were seeded in 96-well plates in the inoculum dose of 1 × 10^4 cells/mL and cultured for 24 h in Dulbecco’s Modified Eagle Medium (DMEM), with 1% (w/v) glutamine in the presence of 10% (v/v) fetal bovine serum and gentamicin (50 mg/L) at 37 °C, with a humidified atmosphere of 5% (v/v) CO2. Cell viability was assessed using the standard MTT assay. The compounds were dissolved in DMSO and then in a nutrient medium, after which they were added to the wells with cells at final concentrations of 10^−7, 10^−6, 10^−5, and 10^−4 M. Hepatocytes were exposed to test compounds for 24 h at 37 °C, 95% relative humidity and 5% (v/v) CO2 atmosphere. After incubation, the medium was replaced with 100 μL of fresh medium containing MTT (0.5 mg/mL). The plates were then incubated at 37°C in a CO2 incubator for 2 h. Then the medium with MTT was removed and DMSO was added to dissolve the formazan crystals.
The results of the MTT assay were evaluated on a Tecan Infinite M200 PRO (Tecan Austria GmbH, Grödig, Austria) plate spectrophotometer at 570 nm by comparing the optical density of a formazan solution in the assay and control wells. The cell viability was expressed as the percentage of untreated control. The results were obtained from three independent experiments performed in six replicates. The IC50 (μM) values were calculated by the AAT Bioquest-calculator: (https://www.aatbio.com/tools/ic50-calculator, accessed on 1 December 2022) and expressed as a mean ± standard error of the mean (SEM). Statistical analysis was carried out using Microsoft Excel 2007 (Microsoft Corporation, Redmond, WA, USA) and Statistica 2009 (Tulsa, OK, USA) programs.

EeAChE PAS = molecular target: T1, EeAChE PAS (Electrophorus electricus, UniProt O42275); assay type: binding; conditions: compound 20 µM; EeAChE 7 µM; propidium iodide 8 µM
T1 construct: The enzyme was electric eel AChE (EeAChE type VI-S, lyophilized powder, Sigma-Aldrich); purchased Sigma-Aldrich type VI-S; host or cells: electric eel (tissue-derived)
Description: This method is widely used as a screening approach to assess the potential ability of compounds to block AChE-induced β-amyloid aggregation. This is because when the compounds bind to the AChE PAS, they prevent the binding of β-amyloid, thereby inhibiting its aggregation.
The enzyme was electric eel AChE (EeAChE type VI-S, lyophilized powder, Sigma-Aldrich). We selected this source of AChE for consistency with our other reports and because of the purity, specific activity, and lower cost compared to human AChE.
Propidium iodide (final concentration 8 μM) was then added for a further 15 min incubation, and the fluorescence spectrum was taken (530 nm excitation and 600 nm emission) using a FLUOStar Optima microplate reader. The same concentration of propidium iodide in the Tris buffer was used as the blank. Triplicate determinations were recorded and the results were calculated via the following equation:% Displacement = 100 − (IFAChE+ Propidium + inhibitor/IFAChE + Propidium) × 100, where IFAChE + Propidium = fluorescence intensity of propidium iodide associated with AChE in the absence of the test compound (taken as 100%), and IFAChE + Propidium + inhibitor = fluorescence intensity of propidium iodide associated with AChE in the presence of the test compound.

porcine liver CES = test: In vitro CES inhibition (4-NPA substrate); assay type: biochemical; conditions: compound 20 µM, n.a. = not active
Description: (§1) Assessment of the esterase profile of new potential anti-AD molecules enables the estimation of both the primary pharmacological effects of the tested compounds—their inhibition of AChE and BChE—and their possible unwanted side effect—inhibition of CES, which hydrolyzes numerous ester-containing drugs. For the esterase profile evaluation, human erythrocyte AChE, equine serum BChE, and porcine liver CES were used. These sources of BChE and CES were employed because of their relatively low cost, high sequence identity to human enzymes, and the exploratory character of this work.
(§2) Chromophore absorbances were measured with a FLUOStar Optima microplate reader (BMG Labtech, Ortenberg, Germany). […] Initially, we used a single concentration of 20 µM for all compounds.

human erythrocyte AChE = molecular target: T2, human erythrocyte AChE (Homo sapiens, UniProt P22303); test: biochemical; conditions: mean ± SEM, n = 3, read-out: Inhibitory activity against AChE, IC50
T2 construct: human erythrocyte AChE, equine serum BChE, and porcine liver CES were used; purchased Sigma-Aldrich; host or cells: human erythrocytes (tissue-derived)
Description: as §1, §2

equine serum BChE = molecular target: T3, equine serum BChE (Equus caballus, UniProt P81908); test: biochemical; conditions: mean ± SEM, n = 3, read-out: Inhibitory activity against BChE, IC50
T3 construct: human erythrocyte AChE, equine serum BChE, and porcine liver CES were used; purchased Sigma-Aldrich; host or cells: equine serum (tissue-derived)
Description: as §1, §2

[1] = ABTS radical cation scavenging assay; design: key to ABTS^•+ Scavenging Activity, TEAC: TEAC: ratio of compound slope to Trolox slope (Trolox equivalents); conditions: 1 h incubation; for IC50: 50% reduction of ABTS radical cation; for ABTS^•+ Scavenging Activity, TEAC: Trolox equivalent, n.a. = not active
Experimental: In the ABTS assay, the dark-green ABTS cation-radical (ABTS^•+) is quenched by interaction with AOs. The consequent decrease in absorbance is followed spectrophotometrically per the previously described method.
Radical scavenging activity of the compounds was assessed using the ABTS radical cation (ABTS^•+) decolorization assay with some modifications. ABTS (2,2′-azinobis-(3-ethylbenzothiazoline-6-sulfonic acid) was purchased from Tokyo Chemical Industry Co., Ltd. (Tokyo, Japan); potassium persulfate (dipotassium peroxodisulfate), Trolox (6-hydroxy-2,5,7,8-tetramethylchroman-2-carboxylic acid), and HPLC-grade ethanol and DMSO were obtained from Sigma-Aldrich (Saint Louis, MO, USA). Aqueous solutions were prepared using deionized water. All tested compounds were dissolved in DMSO.
The solution of cation radical ABTS^•+ was produced by incubation of an aqueous solution of 7 mM ABTS and 2.45 mM potassium persulfate solution in equal quantities for 12–16 h at room temperature in the dark. Radical scavenging capacity of the compounds was analyzed by mixing 10 μL of compound with 240 μL of ABTS^•+ working solution in ethanol (100 μM final concentration). The reaction was monitored for an hour at 30 °C with an interval of 10 min. Data are given for 1 h of incubation of compounds with ABTS^•+. The reduction in absorbance was measured spectrophotometrically at 734 nm using an xMark microplate UV/VIS spectrophotometer (Bio-Rad, Hercules, CA, USA). Ethanol blanks were run in each assay. Values were obtained from five replicates of each sample and three independent experiments.
The standard AO Trolox was used as a reference compound. AO capacity as Trolox equivalent (TEAC) values was determined as the ratio between the slopes obtained from the linear correlation of the ABTS radical absorbance with the concentrations of tested compounds and Trolox. Ascorbic acid was used as a positive control. […]. The compounds were tested in the concentration range of 0.5–100 µM.

T1 sequence (O42275 24-633): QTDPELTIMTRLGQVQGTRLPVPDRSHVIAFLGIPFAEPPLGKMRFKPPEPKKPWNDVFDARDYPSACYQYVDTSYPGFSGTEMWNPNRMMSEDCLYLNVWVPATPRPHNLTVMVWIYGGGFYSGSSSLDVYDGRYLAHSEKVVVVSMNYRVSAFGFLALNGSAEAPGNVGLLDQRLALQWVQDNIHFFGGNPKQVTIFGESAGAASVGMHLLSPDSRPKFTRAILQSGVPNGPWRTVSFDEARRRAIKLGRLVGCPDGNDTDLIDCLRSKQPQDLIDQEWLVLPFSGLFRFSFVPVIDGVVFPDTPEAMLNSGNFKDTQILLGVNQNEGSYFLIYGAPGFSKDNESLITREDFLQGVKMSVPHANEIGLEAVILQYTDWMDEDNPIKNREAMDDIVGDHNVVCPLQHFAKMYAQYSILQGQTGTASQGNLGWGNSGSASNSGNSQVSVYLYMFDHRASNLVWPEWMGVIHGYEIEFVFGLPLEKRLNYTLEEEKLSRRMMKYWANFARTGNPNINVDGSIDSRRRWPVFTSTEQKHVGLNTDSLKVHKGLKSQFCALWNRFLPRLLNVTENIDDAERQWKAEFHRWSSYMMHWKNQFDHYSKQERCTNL
T3 sequence (P81908 whole entry): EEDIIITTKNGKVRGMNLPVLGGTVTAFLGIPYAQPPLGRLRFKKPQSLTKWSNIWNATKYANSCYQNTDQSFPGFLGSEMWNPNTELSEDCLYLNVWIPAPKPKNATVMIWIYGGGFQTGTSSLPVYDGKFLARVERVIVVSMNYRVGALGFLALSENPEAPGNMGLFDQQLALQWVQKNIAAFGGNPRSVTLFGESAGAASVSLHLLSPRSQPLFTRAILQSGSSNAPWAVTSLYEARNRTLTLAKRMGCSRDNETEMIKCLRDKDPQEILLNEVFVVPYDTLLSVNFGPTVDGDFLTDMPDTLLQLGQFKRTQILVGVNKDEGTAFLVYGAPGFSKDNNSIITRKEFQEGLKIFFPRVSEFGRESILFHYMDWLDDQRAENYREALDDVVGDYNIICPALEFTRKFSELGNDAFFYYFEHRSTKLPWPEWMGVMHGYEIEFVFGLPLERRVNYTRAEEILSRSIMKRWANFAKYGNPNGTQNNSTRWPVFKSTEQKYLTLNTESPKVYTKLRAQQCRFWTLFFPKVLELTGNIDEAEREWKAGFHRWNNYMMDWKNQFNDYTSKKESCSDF
T2 sequence (P22303 32-617 isoform P22303-2 limits assumed): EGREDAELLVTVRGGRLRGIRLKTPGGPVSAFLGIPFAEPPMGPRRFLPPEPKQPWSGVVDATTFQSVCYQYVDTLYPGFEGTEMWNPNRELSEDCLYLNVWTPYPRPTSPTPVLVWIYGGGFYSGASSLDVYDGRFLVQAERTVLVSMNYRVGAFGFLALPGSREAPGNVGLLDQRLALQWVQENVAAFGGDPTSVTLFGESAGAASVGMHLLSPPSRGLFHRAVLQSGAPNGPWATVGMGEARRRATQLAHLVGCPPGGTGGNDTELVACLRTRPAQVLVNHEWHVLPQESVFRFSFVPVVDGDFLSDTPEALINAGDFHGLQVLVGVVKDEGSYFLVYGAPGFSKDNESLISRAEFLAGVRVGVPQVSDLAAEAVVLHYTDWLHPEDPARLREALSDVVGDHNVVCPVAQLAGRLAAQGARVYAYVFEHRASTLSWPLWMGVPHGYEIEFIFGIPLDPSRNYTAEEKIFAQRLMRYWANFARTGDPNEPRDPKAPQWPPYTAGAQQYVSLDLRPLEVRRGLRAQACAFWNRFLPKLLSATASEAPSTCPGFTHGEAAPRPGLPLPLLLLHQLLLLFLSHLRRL

## O=C(NCCCCCCNc1c2c(nc3ccccc13)CCCC2)c1ccccc1O [5b]
In vitro
  IC50 at 24 h: 4890 ± 80 nM
EeAChE PAS
  Propidium Displacement from EeAChE PAS: 12.6 ± 1.0%
Porcine liver CES
  Inhibitory activity against CES, inhibition at 20 µM: 19.5 ± 0.9%
Human erythrocyte AChE
  IC50: 294 ± 8 nM
Equine serum BChE
  IC50: 11.9 ± 0.1 nM
[1]
  IC50: 21300 ± 1500 nM
  ABTS^•+ Scavenging Activity, TEAC: 0.93 and 0.90 ± 0.05

## O=C(NCCCCCCNc1c2c(nc3ccccc13)CCCC2)c1cc(F)c(F)cc1O [7b]
In vitro
  IC50 at 24 h: 15160 ± 90 nM
EeAChE PAS
  Propidium Displacement from EeAChE PAS: 12.2 ± 0.9%
Porcine liver CES
  Inhibitory activity against CES, inhibition at 20 µM: 7.1 ± 1.0%
Human erythrocyte AChE
  IC50: 249 ± 17 nM
Equine serum BChE
  IC50: 31.7 ± 3 nM
[1]
  IC50: > 200000 nM
  ABTS^•+ Scavenging Activity, TEAC: 0.030 ± 0.001

## O=C(NCCCCCCCCNc1c2c(nc3ccccc13)CCCC2)c1cc(F)c(F)cc1O [7c]
EeAChE PAS
  Propidium Displacement from EeAChE PAS: 13.6 ± 1.0%
Porcine liver CES
  Inhibitory activity against CES, inhibition at 20 µM: 8.6 ± 0.7%
Human erythrocyte AChE
  IC50: 188 ± 15 nM
Equine serum BChE
  IC50: 22.6 ± 1.8 nM
[1]
  IC50: > 200000 nM
  ABTS^•+ Scavenging Activity, TEAC: 0.040 ± 0.002

## Oc1ccccc1/C=N/CCCCCCCCNc1c2c(nc3ccccc13)CCCC2 [10c]
In vitro
  IC50 at 24 h: 5870 ± 140 nM
EeAChE PAS
  Propidium Displacement from EeAChE PAS: 19.8 ± 1.7%
Porcine liver CES
  Inhibitory activity against CES, inhibition at 20 µM: 23.0 ± 0.3%
Human erythrocyte AChE
  IC50: 82.6 ± 4.6 nM
Equine serum BChE
  IC50: 15.6 ± 1.2 nM
[1]
  IC50: 34200 ± 1800 nM
  ABTS^•+ Scavenging Activity, TEAC: 0.42 ± 0.04
